# Assay results from patent US20130102629A1, “ANALOGUES FOR THE TREATMENT OR PREVENTION OF FLAVIVIRUS INFECTIONS” (VERTEX PHARMACEUTICALS INCORPORATED, priority 2010, published 2013).
# Key:
# [1] = test system: HCV (1b) replicon, Huh-ET cells; test: Cell-based luciferase reporter HCV (1b) RNA replication assay; conditions: Hepatitis C virus; for EC50: HCV genotype 1b replicon, read-out: EC50_1b; for IC50: sub-genomic replicon 1b cell line
# From the text: Cell-Based Luciferase Reporter HCV (Ib) RNA Replication Assay Cell Culture
# Replicon cell lines Huh-5.2 are derived from the Huh-7 hepatocarcinoma cell line are maintained in culture as generally described in Krieger, N; Lohmann, V; Bartenschlager, R. Enhancement of hepatitis C virus RNA replication by cell culture-adaptive mutations. J. Virol. 2001, 75, 4614-4624. The Huh-5.2 cells contain the highly cell culture-adapted replicon I389luc-ubi-neo/NS3-3′/5.1 construct that carries, in addition to the neomycin gene, an integrated copy to the firefly luciferase gene (Krieger, N; Lohmann, V; Bartenschlager, R. Enhancement of hepatitis C virus RNA replication by cell culture-adaptive mutations. J. Virol. 2001, 75, 4614-4624). This cell line allows measurement of HCV RNA replication and translation by measuring luciferase activity. It has been previously shown that the luciferase activity tightly follows the replicon RNA level in these cells (Krieger, N; Lohmann, V; Bartenschlager, R. Enhancement of hepatitis C virus RNA replication by cell culture-adaptive mutations. J. Virol. 2001, 75, 4614-4624). The Huh-ET cell line has the same features as those mentioned for Huh-5.2 cell line, except that ET cells are more robust and contain an adaptative mutation in the HCV NS4B gene instead of NS5A. Both cell lines are maintained in cultures at a sub-confluent level (<85%) as the level of replicon RNA is highest in actively proliferating cells. The culture media used for cell passaging consist of DMEM (Gibco BRL Laboratories, Mississauga, ON, Canada) supplemented with 10% foetal bovine serum with 1% penicilin/streptomycin, 1% glutamine, 1% sodium pyruvate, 1% non-essential amino acids, and 180 μg/ml of G418 final concentration. Cells are incubated at 37° C., in an atmosphere of 5% CO2 and passaged twice a week to maintain sub-confluence.
# Approximately 3000 viable Huh-ET cells (100 μl) are plated per well in a white opaque 96-well microtiter plate. The cell culture media used for the assay is the same as described above except that it contains no G418 and no phenol red. After an incubation period of 3-4 hours at 37° C. in a 5% CO2 incubator, compounds (100 μl) are added at various concentrations. Cells are then further incubated for 4 days at 37° C. in a 5% CO2 incubator. Thereafter, the culture media is removed and cells are lysed by the addition of 95 μL of the luciferase buffer (luciferin substrate in buffered detergent). Cell lysates are incubated at room temperature and protected from direct light for at least 10 minutes. Plates are read for luciferase counts using a luminometer (Wallac MicroBeta Trilux, Perkin Elmer™, MA, USA).
# Curves are fitted to data points using nonlinear regression analysis, and IC50s are interpolated from the resulting curve using GraphPad Prism software, version 2.0 (GraphPad Software Inc., San Diego, Calif., USA).
# [2] = test system: sub-genomic HCV replicon of genotype 1a (cell line W11.8); test: Activity determination using the ELISA and the sub-genomic replicon 1a cell line; format: cell-based; conditions: Hepatitis C virus
# From the text: Activity Determination Using the ELISA and the Sub-Genomic Replicon 1a Cell Line
# The cell line W11.8 containing the sub-genomic HCV replicon of genotype 1a is used to determine the potency of the drugs. The RNA replication in presence of different drug concentrations is indirectly measured in this cell line by the level of NS5A protein content upon drug treatment for four days. It is shown that the level of the NS5A protein correlates well with the level of HCV RNA in the replicon cell line. Cells are split twice a week in order to keep the confluence state below 85% of the culture flask surface area. The culture media used for cell passaging consists of DMEM-10% foetal bovine serum with 100 UI/mL penicillin, 100 μg/mL streptomycin, 2 mM glutamine, 1 mM sodium pyruvate, non-essential amino acids (1×) and 600 μg/mL of G418 final concentrations. Monolayer of the W11.8 cells is trypsinized and cells are counted. […] Then, substrate solution (100 μl, SuperSignal ELISA Pico Chemiluminescent Substrate, Fisher Cat. No. 37069) is added in each well and plates are incubated 60 minutes at room temperature prior to reading the luminescence (relative light units) on the Analyst HT plate reader. The percentage of inhibition at each drug concentration tested (in duplicate) is calculated.
Structure (SMILES),EC50 [1] [nM],IC50 [2] [nM],IC50 [1] [nM]
COC(=O)N[C@H](C(=O)N1C[C@@H](C)C[C@H]1c1ncc(-c2ccc(-c3ccc(-c4ccc5nc([C@@H]6C[C@H](C)CN6C(=O)[C@@H](NC(=O)OC)C(C)C)oc5c4)cc3)cc2)[nH]1)C(C)C [Compound 1],≤ 5,,
COC(=O)N[C@H](C(=O)N1C[C@@H](C)C[C@H]1c1cc2ccc(-c3ccc(-c4ccc(-c5cnc([C@@H]6C[C@H](C)CN6C(=O)[C@@H](NC(=O)OC)C(C)C)[nH]5)cc4)cc3)cc2[nH]1)C(C)C [Compound 2],≤ 5,,
COC(=O)N[C@H](C(=O)N1C[C@@H](C)C[C@H]1c1ncc(-c2ccc(-c3ccc(-c4ccc5sc([C@@H]6C[C@H](C)CN6C(=O)[C@@H](NC(=O)OC)C(C)C)nc5c4)cc3)cc2)[nH]1)C(C)C [Compound 3],≤ 5,,
COC(=O)N[C@H](C(=O)N1[C@@H](C)CC[C@H]1c1nc(-c2ccc(-c3ccc(-c4cnc5[nH]c([C@@H]6CC[C@H](C)N6C(=O)[C@@H](NC(=O)OC)C(C)C)nc5c4)cc3)cc2)c[nH]1)C(C)C [Compound 4],≤ 5,0.025,0.07
COC(=O)N[C@H](C(=O)N1C[C@@H](C)C[C@H]1c1cc2cc(-c3ccc(-c4ccc(-c5cnc([C@@H]6C[C@H](C)CN6C(=O)[C@@H](NC(=O)OC)C(C)C)[nH]5)cc4)cc3)ccc2[nH]1)C(C)C [Compound 5],≤ 5,,
COC(=O)N[C@H](C(=O)N1C(c2nc3cc(-c4ccc(-c5ccc(-c6c[nH]c([C@@H]7CC[C@H](C)N7C(=O)[C@@H](NC(=O)OC)C(C)C)n6)cc5)cc4)cnc3[nH]2)CC[C@@H]1C)C(C)C (stereo partly drawn) [Compound 6],≤ 5,,
COC(=O)N[C@H](C(=O)N1C[C@@H](C)C[C@H]1c1nc2ccc(-c3cc4sc(-c5c[nH]c([C@@H]6C[C@H](C)CN6C(=O)[C@@H](NC(=O)OC)C(C)C)n5)cc4s3)cn2n1)C(C)C [Compound 15],≤ 5,,
"COC(=O)N[C@H](C(=O)N1C[C@@H](C)C[C@H]1c1nc(-c2ccc(-c3ccc(-c4cnc5[nH]c([C@@H]6C[C@H](C)CN6C(=O)[C@@H](NC(=O)OC)C(C)C)nc5c4)cc3)cc2)c[nH]1)C(C)C [Compound 16, Methyl N-[(1S)-1-[(2S,4S)-2-[4-[4-[4-[2-[(2S,4S)-1-[(2S)-2-(methoxycarbonylamino)-3-methyl-butanoyl]-4-methyl-pyrrolidin-2-yl]-3H-imidazo[4,5-b]pyridin-6-yl]phenyl]phenyl]-1H-imidazol-2-yl]-4-methyl-pyrrolidine-1-carbonyl]-2-methyl-propyl]carbamate]",≤ 5,0.01,0.01
